Experimental data: patent US9956187B2 (priority 2014, dated 2018)
Structures can show the parent of a compound that is named as a salt.

Experiments:
BZP Rat Brain Site = settings: primary binding, dezocine 10 μM
Procedure: (§1) Evidence for interaction was based on the inhibition of the reference ligand-binding signal. […] Briefly, 50 μL aliquots of radioactive ligand (5 nM) were added to wells of a 96-well plate, which contained 25 μL of the reference or test ligands. We employed transfected cell lines expressing mainly human (unless otherwise specified) recombinant receptors, monoamine transporters, or ion channels for crude membrane preparation. Detailed information about our membrane preparation is well known in the art and can be obtained from publicly available protocol online. Crude membrane fractions containing the receptors were resuspended in standard binding buffer and 50 μL aliquots added to each well. The reactions were incubated at room temperature for 1.5 hours to allow for radioligand binding equilibration. Bound radioactivity was harvested by rapid filtration through a 0.3% polyethyleneimine-treated, 96-well filter mats using a 96-well Filtermate harvester. The dried filters were treated with melted scintillant and a Microbeta scintillation counter was utilized to measure the radioactivity retained on the filter.

[1] = target: T1, serotonin transporter (SERT) (Homo sapiens, UniProt P31645); assay: Secondary radioligand binding assay (affinity)
T1 construct: expressed in transfected cells
Procedure: (§2) The secondary binding assay was performed only when the inhibition in the primary screen was over 50%. A secondary binding assay was utilized to determine the binding affinity for the identified receptor.
(§3) 50 μL of a crude membrane fraction of cells expressing the respective receptors were applied to each well. Reaction incubation, harvesting and radioactivity measurement from the primary assay were repeated. Affinity is expressed as pKi (−log Ki).

delta opioid receptor = target: T2, delta opioid receptor (Homo sapiens, UniProt P41143); assay: Secondary radioligand binding assay (affinity); settings: mean±SE; read-out: Ki DOR
T2 construct: expressed in transfected cells
Procedure: as §2, §3

kappa opioid receptor [2] = target: T3, kappa opioid receptor (Homo sapiens, UniProt P41145); assay type: biochemical; parameters: purchased Millipore (Billerica, Mass.); host or cells: Chem-5 mammalian cell line; settings: ligand alone
Excerpt: Membrane preparations of recombinant human kappa opioid receptor expressed in the mammalian cell line Chem-5 were obtained from Millipore (Billerica, Mass.). The effects of specific kappa opioid receptor ligands on the activation of the recombinant receptor were investigated by measuring G protein activation in vitro.
The assay reports the initial rates of activation of heterotrimeric G proteins (Gαii1β1γ2) on an agonist-bound receptor by measuring the accumulation of [^35S]-GTPγS (non-hydrolyzable analog of GTP) bound to the activated Gαi1 subunit. […] The G protein activation assay was conducted as follows (final concentrations in 50 μL reaction mixture are given in parentheses): the membrane sample was diluted into ice-cold 10 mM 3-(N-morpholino)propanesulfonic acid (MOPS) buffer to reach a protein concentration of 40 ng/μL. 10 μL of the diluted dispersion were dispensed into pre-siliconized glass tubes and mixed with the ligand in MOPS buffer containing 0.1% (w/v) BSA. Upon addition of a mixture of Gαi1 (100 nM) and Gβ1γ2 (500 nM), the tubes were incubated on ice for 30 minutes. The reaction was started by addition of MOPS buffer pH=7.5 (50 mM), EDTA (1 mM), MgCl2 (3 mM), GDP (4 μM), BSA (0.3% w/v), NaCl (100 mM), DTT (1 mM), and [^35S]-GTPγS (5 nM, 1250 Ci/mmol) followed by rapid transfer of the tubes to a water bath at 30° C. The incubation continued for 45 minutes. The reaction was terminated by addition of 2 mL of ice-cold stop solution, TNMg (20 mM Tris-HCl pH=8.0, 100 mM NaCl, and 25 mM MgCl2). The reaction mixture was rapidly filtered through nitrocellulose filters (Millipore). Filters were washed four times with 2 mL each of cold TNMg buffer, dried, placed in scintillation vials filled with ScintiSafe Econo F scintillation liquid (Fisher, Waltham, Mass.), and the radioactivity counted. Duplicate samples corresponding to every ligand concentration point were counted.

human cloned NET = target: T4, human cloned NET (Homo sapiens, UniProt P23975); assay: Norepinephrine reuptake assay in HEK 293 cells; assay type: cell-based; settings: mean±SE
T4 construct: expressed in transfected cells
Procedure: In brief, Human Embryonic Kidney 293 cells were plated in Poly-L-Lys (PLL) coated 384-well black clear bottom cell culture plates in DMEM+1% dFBS, at a density of 15,000 cells per well in a total volume of 40 μl. The cells were incubated for a minimum of 6 hours before use in the assays. The medium was removed and 20 μL of assay buffer (20 mM HEPES, 1×HBSS, pH 7.40) was added, followed by 5 μL of 5× drug solutions. The plate was incubated at 37° C. for 30 min. After the incubation, 25 μL of dye solution was added and fluorescence intensity was measured after […] at 37° C., using FlexStation II (bottom read mode, Excitation at 440 nm, Emission at 520 nm with 510 nm cut-off) from the Molecular Devices. […] The half maximal inhibitory concentration were determined and expressed as pIC50 (pIC50=−log (IC50)).

kappa opioid receptor [3] = target: T3, kappa opioid receptor; assay type: binding; parameters: expressed in transfected cells; settings: mean±SE; read-out: Ki KOR
Procedure: as §2, §3

KOR = target: T5, KOR (Homo sapiens, UniProt P41145); assay: biochemical; assay type: binding
T5 construct: expressed in transfected cells
Procedure: as §1

H1 = target: T6, H1 (Homo sapiens, UniProt P35367); assay: biochemical; assay type: binding
T6 construct: expressed in transfected cells
Procedure: as §1

MOR = target: T7, MOR (Homo sapiens, UniProt P35372); assay: biochemical; assay type: binding
T7 construct: expressed in transfected cells
Procedure: as §1

5-HT6 = target: T8, 5-HT6 (Homo sapiens, UniProt P50406); assay: Primary radioligand binding screen
T8 construct: expressed in transfected cells
Procedure: as §1

D3 = target: T9, D3 (Homo sapiens, UniProt P35462); assay: Primary radioligand binding screen
T9 construct: expressed in transfected cells
Procedure: as §1

5-HT2B = target: T10, 5-HT2B (Homo sapiens, UniProt P41595); assay: Primary radioligand binding screen
T10 construct: expressed in transfected cells
Procedure: as §1

5-HT2A = target: T11, 5-HT2A (Homo sapiens, UniProt P28223); assay: Primary radioligand binding screen
T11 construct: expressed in transfected cells
Procedure: as §1

Beta2 = target: T12, Beta2 (Homo sapiens, UniProt P07550); assay: Primary radioligand binding screen
T12 construct: expressed in transfected cells
Procedure: as §1

H3 = target: T13, H3 (Homo sapiens, UniProt Q9Y5N1); assay: Primary radioligand binding screen
T13 construct: expressed in transfected cells
Procedure: as §1

5-HT2C = target: T14, 5-HT2C (Homo sapiens, UniProt P28335); assay: Primary radioligand binding screen
T14 construct: expressed in transfected cells
Procedure: as §1

M3 = target: T15, M3 (Homo sapiens, UniProt P20309); assay: Primary radioligand binding screen
T15 construct: expressed in transfected cells
Procedure: as §1

D5 = target: T16, D5 (Homo sapiens, UniProt P21918); assay: Primary radioligand binding screen
T16 construct: expressed in transfected cells
Procedure: as §1

Alpha2C = target: T17, Alpha2C (Homo sapiens, UniProt P18825); assay: Primary radioligand binding screen
T17 construct: expressed in transfected cells
Procedure: as §1

5-HT1D = target: T18, 5-HT1D (Homo sapiens, UniProt P28221); assay: Primary radioligand binding screen
T18 construct: expressed in transfected cells
Procedure: as §1

Alpha1B = target: T19, Alpha1B (Homo sapiens, UniProt P35368); assay: Primary radioligand binding screen
T19 construct: expressed in transfected cells
Procedure: as §1

Alpha1D = target: T20, Alpha1D (Homo sapiens, UniProt P25100); assay: Primary radioligand binding screen
T20 construct: expressed in transfected cells
Procedure: as §1

M4 = target: T21, M4 (Homo sapiens, UniProt P08173); assay: Primary radioligand binding screen
T21 construct: expressed in transfected cells
Procedure: as §1

Alpha2B = target: T22, Alpha2B (Homo sapiens, UniProt P18089); assay: Primary radioligand binding screen
T22 construct: expressed in transfected cells
Procedure: as §1

M2 = target: T23, M2 (Homo sapiens, UniProt P08172); assay: Primary radioligand binding screen
T23 construct: expressed in transfected cells
Procedure: as §1

Beta1 = target: T24, Beta1 (Homo sapiens, UniProt P08588); assay: Primary radioligand binding screen
T24 construct: expressed in transfected cells
Procedure: as §1

D1 = target: T25, D1 (Homo sapiens, UniProt P21728); assay: Primary radioligand binding screen
T25 construct: expressed in transfected cells
Procedure: as §1

5-HT3 = target: T26, 5-HT3 (Homo sapiens, UniProt P46098); assay: Primary radioligand binding screen
T26 construct: expressed in transfected cells
Procedure: as §1

Sigma 2 = Sigma 2 (Rattus norvegicus, UniProt Q5U3Y7); assay: Primary radioligand binding screen
Procedure: as §1

M1 = target: T27, M1 (Homo sapiens, UniProt P11229); assay: Primary radioligand binding screen
T27 construct: expressed in transfected cells
Procedure: as §1

D2 = target: T28, D2 (Homo sapiens, UniProt P14416); assay: Primary radioligand binding screen
T28 construct: expressed in transfected cells
Procedure: as §1

T3 sequence (P41145 whole entry): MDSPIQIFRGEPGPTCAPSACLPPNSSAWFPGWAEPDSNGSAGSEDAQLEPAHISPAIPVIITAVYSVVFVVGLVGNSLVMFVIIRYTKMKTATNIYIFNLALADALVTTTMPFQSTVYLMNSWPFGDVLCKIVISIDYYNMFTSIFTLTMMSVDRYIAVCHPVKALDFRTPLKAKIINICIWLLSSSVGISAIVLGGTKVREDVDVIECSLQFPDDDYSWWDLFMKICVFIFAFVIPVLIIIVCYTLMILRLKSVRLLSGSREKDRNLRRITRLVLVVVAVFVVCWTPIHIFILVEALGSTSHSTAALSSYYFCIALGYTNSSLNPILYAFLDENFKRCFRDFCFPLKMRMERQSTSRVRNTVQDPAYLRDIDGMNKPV
T1 sequence (P31645 whole entry): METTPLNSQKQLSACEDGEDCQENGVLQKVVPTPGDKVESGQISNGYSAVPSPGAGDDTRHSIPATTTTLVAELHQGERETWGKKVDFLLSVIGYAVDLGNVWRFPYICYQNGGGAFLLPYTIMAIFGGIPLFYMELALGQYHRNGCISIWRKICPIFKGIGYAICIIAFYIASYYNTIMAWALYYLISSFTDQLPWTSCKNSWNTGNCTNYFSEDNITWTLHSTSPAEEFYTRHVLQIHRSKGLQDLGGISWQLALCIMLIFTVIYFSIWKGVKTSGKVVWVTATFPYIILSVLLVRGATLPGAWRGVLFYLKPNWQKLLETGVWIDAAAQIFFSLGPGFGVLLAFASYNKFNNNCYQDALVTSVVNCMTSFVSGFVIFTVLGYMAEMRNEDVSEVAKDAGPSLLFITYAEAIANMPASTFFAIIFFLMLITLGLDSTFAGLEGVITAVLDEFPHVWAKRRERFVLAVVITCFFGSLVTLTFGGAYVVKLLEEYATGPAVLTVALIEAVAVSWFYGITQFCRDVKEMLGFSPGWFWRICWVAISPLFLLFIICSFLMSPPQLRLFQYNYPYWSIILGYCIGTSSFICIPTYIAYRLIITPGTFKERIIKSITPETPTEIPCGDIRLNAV
T7 sequence (P35372 whole entry): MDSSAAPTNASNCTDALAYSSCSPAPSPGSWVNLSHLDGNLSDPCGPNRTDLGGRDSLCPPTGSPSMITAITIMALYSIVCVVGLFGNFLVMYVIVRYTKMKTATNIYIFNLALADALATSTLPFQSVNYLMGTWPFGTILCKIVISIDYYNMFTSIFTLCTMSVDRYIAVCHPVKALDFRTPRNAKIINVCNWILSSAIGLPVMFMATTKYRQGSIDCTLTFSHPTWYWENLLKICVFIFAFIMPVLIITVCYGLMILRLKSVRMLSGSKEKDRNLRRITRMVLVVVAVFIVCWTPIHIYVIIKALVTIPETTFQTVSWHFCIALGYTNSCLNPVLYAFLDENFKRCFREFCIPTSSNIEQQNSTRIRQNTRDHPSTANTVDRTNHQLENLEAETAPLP
T10 sequence (P41595 whole entry): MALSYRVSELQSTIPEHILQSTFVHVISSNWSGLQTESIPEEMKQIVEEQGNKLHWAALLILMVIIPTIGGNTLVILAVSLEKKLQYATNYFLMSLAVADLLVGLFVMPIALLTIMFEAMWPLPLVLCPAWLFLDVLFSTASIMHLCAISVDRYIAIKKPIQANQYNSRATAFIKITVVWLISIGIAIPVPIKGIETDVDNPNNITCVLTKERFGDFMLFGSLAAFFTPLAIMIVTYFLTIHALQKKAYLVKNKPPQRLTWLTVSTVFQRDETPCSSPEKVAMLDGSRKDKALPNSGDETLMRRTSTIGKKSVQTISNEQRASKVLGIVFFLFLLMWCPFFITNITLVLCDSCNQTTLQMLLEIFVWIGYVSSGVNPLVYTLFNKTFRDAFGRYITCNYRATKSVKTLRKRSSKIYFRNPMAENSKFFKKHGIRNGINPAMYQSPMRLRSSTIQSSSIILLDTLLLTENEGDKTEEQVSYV
T24 sequence (P08588 whole entry): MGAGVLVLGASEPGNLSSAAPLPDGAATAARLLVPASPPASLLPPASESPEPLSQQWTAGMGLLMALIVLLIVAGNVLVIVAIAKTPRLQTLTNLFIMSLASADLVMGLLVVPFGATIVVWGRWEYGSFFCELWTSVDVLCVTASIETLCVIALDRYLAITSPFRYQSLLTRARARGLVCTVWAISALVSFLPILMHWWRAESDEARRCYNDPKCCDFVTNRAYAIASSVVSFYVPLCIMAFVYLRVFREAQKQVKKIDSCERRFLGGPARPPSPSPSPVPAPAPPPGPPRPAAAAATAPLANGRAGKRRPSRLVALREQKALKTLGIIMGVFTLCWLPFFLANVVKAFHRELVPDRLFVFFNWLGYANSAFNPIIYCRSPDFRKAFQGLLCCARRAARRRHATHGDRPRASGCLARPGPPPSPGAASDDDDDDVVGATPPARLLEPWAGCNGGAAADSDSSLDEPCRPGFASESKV
T5 sequence (P41145 whole entry): as the sequence (P41145 whole entry) above
T21 sequence (P08173 whole entry): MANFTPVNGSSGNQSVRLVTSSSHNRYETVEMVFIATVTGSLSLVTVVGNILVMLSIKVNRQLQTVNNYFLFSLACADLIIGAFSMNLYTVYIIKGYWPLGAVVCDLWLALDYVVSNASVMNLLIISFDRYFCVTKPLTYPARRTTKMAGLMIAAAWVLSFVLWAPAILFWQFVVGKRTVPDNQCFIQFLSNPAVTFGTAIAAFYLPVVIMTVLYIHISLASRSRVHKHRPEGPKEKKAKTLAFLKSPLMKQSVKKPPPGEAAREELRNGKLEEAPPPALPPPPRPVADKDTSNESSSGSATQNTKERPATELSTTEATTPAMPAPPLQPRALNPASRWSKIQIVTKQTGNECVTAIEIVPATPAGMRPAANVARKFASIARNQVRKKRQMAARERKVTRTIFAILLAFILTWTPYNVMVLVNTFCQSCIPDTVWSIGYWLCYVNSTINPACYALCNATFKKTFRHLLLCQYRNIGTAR
T12 sequence (P07550 whole entry): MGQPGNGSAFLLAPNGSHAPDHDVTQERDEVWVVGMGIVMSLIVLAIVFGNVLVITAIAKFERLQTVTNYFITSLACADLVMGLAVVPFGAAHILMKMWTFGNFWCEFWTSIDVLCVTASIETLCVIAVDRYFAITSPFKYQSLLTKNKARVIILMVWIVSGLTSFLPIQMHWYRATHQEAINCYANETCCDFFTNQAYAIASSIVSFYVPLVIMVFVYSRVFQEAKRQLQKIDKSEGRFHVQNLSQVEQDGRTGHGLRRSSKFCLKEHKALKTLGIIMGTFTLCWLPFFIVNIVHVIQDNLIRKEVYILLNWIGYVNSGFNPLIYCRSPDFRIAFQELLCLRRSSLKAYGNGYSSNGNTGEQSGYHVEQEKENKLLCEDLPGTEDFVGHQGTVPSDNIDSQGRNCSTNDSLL
T26 sequence (P46098 24-478): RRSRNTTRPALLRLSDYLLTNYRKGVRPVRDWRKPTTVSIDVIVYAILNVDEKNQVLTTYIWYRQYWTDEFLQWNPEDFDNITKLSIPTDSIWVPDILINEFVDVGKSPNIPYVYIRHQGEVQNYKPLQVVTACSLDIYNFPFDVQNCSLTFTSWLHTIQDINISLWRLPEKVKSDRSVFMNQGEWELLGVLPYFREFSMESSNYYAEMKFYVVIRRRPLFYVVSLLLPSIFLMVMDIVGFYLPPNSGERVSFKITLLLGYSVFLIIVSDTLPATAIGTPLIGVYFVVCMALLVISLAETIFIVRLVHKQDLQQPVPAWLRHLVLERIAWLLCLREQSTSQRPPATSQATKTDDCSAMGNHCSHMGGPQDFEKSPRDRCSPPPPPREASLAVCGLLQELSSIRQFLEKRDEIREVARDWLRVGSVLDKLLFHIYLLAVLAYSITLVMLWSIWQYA
T11 sequence (P28223 whole entry): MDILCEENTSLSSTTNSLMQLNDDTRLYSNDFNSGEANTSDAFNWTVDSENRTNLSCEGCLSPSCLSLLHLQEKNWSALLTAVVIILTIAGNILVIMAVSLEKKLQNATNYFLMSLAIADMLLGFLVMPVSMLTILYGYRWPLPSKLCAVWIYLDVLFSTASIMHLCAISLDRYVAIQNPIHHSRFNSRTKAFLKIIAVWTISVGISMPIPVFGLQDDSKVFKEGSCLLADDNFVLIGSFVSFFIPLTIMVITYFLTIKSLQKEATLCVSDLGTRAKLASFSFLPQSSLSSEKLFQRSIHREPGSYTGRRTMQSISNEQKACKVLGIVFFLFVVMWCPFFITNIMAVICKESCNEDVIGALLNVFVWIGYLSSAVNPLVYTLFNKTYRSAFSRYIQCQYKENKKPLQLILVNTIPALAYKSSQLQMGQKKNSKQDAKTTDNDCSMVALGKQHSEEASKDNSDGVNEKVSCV
T15 sequence (P20309 whole entry): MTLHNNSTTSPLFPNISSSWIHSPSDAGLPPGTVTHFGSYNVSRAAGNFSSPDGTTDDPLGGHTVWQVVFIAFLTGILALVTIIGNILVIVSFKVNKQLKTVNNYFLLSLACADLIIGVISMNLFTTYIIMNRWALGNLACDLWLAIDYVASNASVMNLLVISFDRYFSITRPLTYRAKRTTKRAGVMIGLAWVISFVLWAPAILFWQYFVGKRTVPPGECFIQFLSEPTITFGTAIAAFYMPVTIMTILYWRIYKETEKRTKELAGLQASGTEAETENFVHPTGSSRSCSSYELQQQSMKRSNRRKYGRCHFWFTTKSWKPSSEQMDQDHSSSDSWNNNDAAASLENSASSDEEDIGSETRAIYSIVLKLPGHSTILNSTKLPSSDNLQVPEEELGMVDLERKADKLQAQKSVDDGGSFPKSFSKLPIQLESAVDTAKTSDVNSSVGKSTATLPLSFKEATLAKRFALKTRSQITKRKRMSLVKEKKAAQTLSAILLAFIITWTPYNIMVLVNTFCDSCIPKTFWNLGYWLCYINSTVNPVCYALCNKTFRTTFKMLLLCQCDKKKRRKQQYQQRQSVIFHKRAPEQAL

C[C@@]12CCCCC[C@@H](Cc3ccc(O)cc31)[C@@H]2N [Dezocine, (−)-13β-amino-5,6,7,8,9,10,11,12-octahydro-5α-methyl-5,11-methanobenxocyclodecen-31-ol, hydrobromide]
% inhibition (BZP Rat Brain Site): 11.5% | Ki ([1]; FIG. 12): 111 nM | pKi SERT ([1]; mean±SE): 6.96±0.08 | Ki (delta opioid receptor): 527 ± 70 nM | G protein activation in the presence of kappa receptor (kappa opioid receptor [2]): no significant G protein activation | pIC50 at NET (norepinephrine reuptake) (human cloned NET): 5.68±0.11 | Ki (kappa opioid receptor [3]): 31.9 ± 1.9 nM | inhibition at 10 µM (KOR): 91.3% | inhibition at 10 µM (H1): 20.7% | inhibition at 10 µM (MOR): 89.6% | inhibition at 10 µM (5-HT6): 10.9% | inhibition at 10 µM (D3): -9.4% | inhibition at 10 µM (5-HT2B): -11.9% | inhibition at 10 µM (5-HT2A): -10% | inhibition at 10 µM (Beta2): -4.5% | inhibition at 10 µM (H3): -1.6% | inhibition at 10 µM (5-HT2C): 19.8% | inhibition at 10 µM (M3): -3.4% | inhibition at 10 µM (D5): -6.3% | inhibition at 10 µM (Alpha2C): -7.9% | inhibition at 10 µM (5-HT1D): -0.4% | inhibition at 10 µM (Alpha1B): 14.7% | inhibition at 10 µM (Alpha1D): 8.9% | inhibition at 10 µM (M4): 2.5% | inhibition at 10 µM (Alpha2B): 21.2% | inhibition at 10 µM (M2): 31.5% | inhibition at 10 µM (Beta1): 10% | inhibition at 10 µM (D1): 11.5% | inhibition at 10 µM (5-HT3): 11.8% | inhibition at 10 µM (Sigma 2): 6.3% | inhibition at 10 µM (M1): -6.8% | inhibition at 10 µM (D2): -3.8%
